Experimental data: patent US4143041A, “4'-Deoxyvincristine and related compounds” (Eli Lilly and Company, priority 1977, dated 1979)
Structures can show the parent of a compound that is named as a salt.

What was measured:
[1] = system: GLS (Gardner lymphosarcoma); test: transplanted Gardner lymphosarcoma (GLS) in mice; type: in vivo
Protocol: (§1) The compounds of this invention, as represented by Formula II above, particularly those in which R^1 is acetoxy, are powerful anti-tumor agents.
(§2) The following table -- Table 1 -- gives the results of several experiments in which transplanted tumors in mice were treated successfully with a compound of this invention.
(§3) In the table, column 1 gives the name of the compound; column 2, the transplanted tumor; column 3, the dose level or dose level range and the number of days the dosage was administered; column 4, the route of administration, and column 5, the percent inhibition of tumor growth or percent prolongation of survival time, e.g., B16. (ROS is an abbreviation of Ridgeway osteogenic sarcoma; GLS for Gardner lymphosarcoma; P1534(J) and L1210 are leukemias; CA755 is an adenocarcinoma; and B16 is a melanoma.).

L1210 leukemia = test: transplanted L1210 leukemia in mice; type: in vivo; conditions: IP
Protocol: as §1, §2, §3

[2] = system: ROS (Ridgeway osteogenic sarcoma); test: transplanted Ridgeway osteogenic sarcoma (ROS) in mice; type: in vivo; conditions: IP
Protocol: as §1, §2, §3

B16 melanoma = test: transplanted B16 melanoma in mice (survival); type: in vivo; conditions: IP
Protocol: as §1, §2, §3
**Delayed treatment-dosed 5th, 9th and 13th days

[3] = system: 755 (CA755 adenocarcinoma); test: transplanted CA755 adenocarcinoma in mice; type: in vivo; conditions: IP
Protocol: as §1, §2, §3

pKa' in 66% DMF = type: physicochemical
P1534(J) leukemia = test: transplanted P1534(J) leukemia in mice; type: in vivo; conditions: IP
Protocol: as §1, §2, §3

transplanted tumors = test: anti-tumor / oncolytic activity against transplanted tumors in mice; type: in vivo
Description: as §1

[4] = system: experimental malignancies; conditions: cited from earlier work
experimental tumors = conditions: cited from earlier work
[5] = cited from earlier work

CC[C@H]1C[C@@H]2CN(CCc3c([nH]c4ccccc34)[C@@](C(=O)OC)(c3cc4c(cc3OC)N(C=O)[C@H]3[C@@](O)(C(=O)OC)[C@H](OC(C)=O)[C@]5(CC)C=CCN6CC[C@]43[C@@H]65)C2)C1 [4'-Deoxy-1-formylleurosidine sulfate]
Percent Inhibition or Prolongation of Survival Time ([1]; 0.18 mg./kg. × 3 days, IP): 100% | Percent Inhibition or Prolongation of Survival Time (Toxic) ([1]; 0.25 mg./kg. × 3 days, IP): Toxic | Percent Inhibition or Prolongation of Survival Time ([1]; 0.4 mg./kg. × 3 days, IP): 100% | Percent Inhibition or Prolongation of Survival Time (Toxic) ([1]; 0.6 mg./kg. × 3 days, IP): Toxic | Percent Inhibition or Prolongation of Survival Time (L1210 leukemia; 0.25 mg./kg. × 3 days, *1 or more indefinite survivors): 65% | Percent Inhibition or Prolongation of Survival Time (Toxic) (L1210 leukemia; 0.4-0.6 mg./kg. × 3 days): Toxic | Percent Inhibition or Prolongation of Survival Time ([2]; 0.18 mg./kg. × 3 days): 93% | Percent Inhibition or Prolongation of Survival Time (Toxic) ([2]; 0.25 mg./kg. × 3 days): Toxic | Percent Inhibition or Prolongation of Survival Time ([2]; 0.4 mg./kg. × 3 days): 100%

CC[C@H]1C[C@@H]2CN(CCc3c([nH]c4ccccc34)[C@@](C(=O)OC)(c3cc4c(cc3OC)N(C=O)[C@H]3[C@@](O)(C(=O)OC)[C@H](O)[C@]5(CC)C=CCN6CC[C@]43[C@@H]65)C2)C1 [4'-Deoxy-4-desacetyl 1-desmethyl-1-formyl-leurosidine sulfate]
Percent Inhibition or Prolongation of Survival Time ([1]; 0.18 mg./kg. × 3 days, route not given): 95% | Percent Inhibition or Prolongation of Survival Time (Toxic) ([1]; 0.6 mg./kg. × 3 days, route not given): Toxic | Percent Inhibition or Prolongation of Survival Time ([1]; 0.25-0.40 mg./kg. × 3 days, route not given): 94-100% | Percent Inhibition or Prolongation of Survival Time (B16 melanoma; 0.15-0.6 mg./kg. × 3 days, **delayed treatment, dosed 5th, 9th and 13th days): 31 -62%

CC[C@@H]1C[C@@H]2CN(CCc3c([nH]c4ccccc34)[C@@](C(=O)OC)(c3cc4c(cc3OC)N(C=O)[C@H]3[C@@](O)(C(=O)OC)[C@H](OC(C)=O)[C@]5(CC)C=CCN6CC[C@]43[C@@H]65)C2)C1 [4'-Deoxyvincristine sulfate, 4'-deoxyvincristine sulfate]
Percent Inhibition or Prolongation of Survival Time (Toxic) ([3]; 0.9 mg./kg. × 3 days): Toxic | Percent Inhibition or Prolongation of Survival Time ([3]; 0.06-0.13 mg./kg. × 9-10 days): 15-100% | Percent Inhibition or Prolongation of Survival Time ([3]; 0.1-0.3 mg./kg. × 3 days): 36-100% | Percent Inhibition or Prolongation of Survival Time (Toxic) ([3]; 0.25-1.8 mg./kg. × 9-10 days): Toxic | Percent Inhibition or Prolongation of Survival Time ([1]; 0.18-0.25 mg./kg. × 3 days, IP): 62-94% | Percent Inhibition or Prolongation of Survival Time (Toxic) ([1]; 0.4-0.6 mg./kg. × 3 days, IP): Toxic | Percent Inhibition or Prolongation of Survival Time (B16 melanoma; 0.30-0.9 mg./kg. × 3 days, *1 or more indefinite survivors): 36-143%

CC[C@H]1C[C@@H]2CN(CCc3c([nH]c4ccccc34)[C@@](C(=O)OC)(c3cc4c(cc3OC)N(C=O)[C@H]3[C@@](O)(C(=O)OC)[C@H](OC(C)=O)[C@]5(CC)C=CCN6CC[C@]43[C@@H]65)C2)C1 [4'-deoxy-1-formylleurosidine]
Percent Inhibition or Prolongation of Survival Time ([3]; 0.25 mg./kg. × 3 days): 47% | Percent Inhibition or Prolongation of Survival Time ([3]; 0.4 mg./kg. × 3 days): 73% | Percent Inhibition or Prolongation of Survival Time ([3]; 0.6 mg./kg. × 3 days): 54% | Percent Inhibition or Prolongation of Survival Time ([3]; 0.03-0.09 mg./kg. × 9 days): 8-72% | Percent Inhibition or Prolongation of Survival Time ([3]; 0.06-0.135 mg./kg. × 10 days): 33-93% | Percent Inhibition or Prolongation of Survival Time (Toxic) ([3]; 0.2-0.3 mg./kg. × 10 days): Toxic | Percent Inhibition or Prolongation of Survival Time ([1]; 0.25-0.6 mg./kg. × 3 days, IP): 73-100% | Percent Inhibition or Prolongation of Survival Time (Toxic) (B16 melanoma; 0.9 mg./kg. × 3 days): Toxic | Percent Inhibition or Prolongation of Survival Time (B16 melanoma; 0.25-0.6 mg./kg. × 3 days): 98-146% | pKa (pKa' in 66% DMF): 9 | Percent Inhibition or Prolongation of Survival Time (Toxic) (P1534(J) leukemia; 0.18 mg./kg. × 10 days): Toxic | Percent Inhibition or Prolongation of Survival Time (P1534(J) leukemia; 0.08-0.18 mg./kg. × 10 days): 9-46%

CC[C@H]1C[C@@H]2CN(CCc3c([nH]c4ccccc34)[C@@](C(=O)OC)(c3cc4c(cc3OC)N(C)[C@H]3[C@@](O)(C(=O)OC)[C@H](O)[C@]5(CC)C=CCN6CC[C@]43[C@@H]65)C2)C1 [4'-deoxy-4-desacetyl-leurosidine sulfate, 4'-deoxy-4-desacetylleurosidine sulfate]
Percent Inhibition or Prolongation of Survival Time ([3]; 0.25 mg./kg. × 3 days): 32% | Percent Inhibition or Prolongation of Survival Time ([3]; 0.4 mg./kg. × 3 days): 37% | Percent Inhibition or Prolongation of Survival Time (Toxic) ([3]; 0.6 mg./kg. × 3 days): Toxic | Percent Inhibition or Prolongation of Survival Time (Toxic) ([1]; 0.4 mg./kg. × 3 days, IP): Toxic | Percent Inhibition or Prolongation of Survival Time ([1]; 0.6 mg./kg. × 3 days, IP): 63% | Percent Inhibition or Prolongation of Survival Time (Toxic) ([1]; 0.9 mg./kg. × 3 days, IP): Toxic | Percent Inhibition or Prolongation of Survival Time (B16 melanoma; 0.15 mg./kg. × 3 days, **delayed treatment, dosed 5th, 9th and 13th days): 77% | Percent Inhibition or Prolongation of Survival Time (B16 melanoma; 0.3 mg./kg. × 3 days, **delayed treatment, dosed 5th, 9th and 13th days): 103% | Percent Inhibition or Prolongation of Survival Time (Toxic) (B16 melanoma; 0.6 mg./kg. × 3 days, **delayed treatment, dosed 5th, 9th and 13th days): Toxic

CC[C@H]1C[C@@H]2CN(CCc3c([nH]c4ccccc34)[C@@](C(=O)OC)(c3cc4c(cc3OC)N(C)[C@H]3[C@@](O)(C(=O)OC)[C@H](O)[C@]5(CC)C=CCN6CC[C@]43[C@@H]65)C2)C1 [4'-deoxy-4-desacetylleurosidine]
anti-tumor / oncolytic activity (transplanted tumors): oncolytic agent

CC[C@]1(O)C[C@@H]2CN(CCc3c([nH]c4ccccc34)[C@@](C(=O)OC)(c3cc4c(cc3OC)N(C)[C@@H]3[C@]45CCN4CC=C[C@@](CC)(C[C@]3(O)C(=O)OC)[C@H]45)C2)C1 [4-desacetoxy vinblastine]
activity in the treatment of experimental malignancies in animals [4]: active

CCC1(O)CN2CCc3c([nH]c4ccccc34)C(C(=O)OC)(c3cc4c(cc3OC)N(C)C3C(O)(C(=O)OC)CC5(CC)C=CCN6CCC43C65)CC(C2)C1O (stereo not drawn) [4-desacetoxy-3'-hydroxyvinblastine]
activity in the treatment of experimental malignancies in animals [4]: active

CC[C@@H]1C[C@@H]2CN(CCc3c([nH]c4ccccc34)[C@@](C(=O)OC)(c3cc4c(cc3OC)N(C)[C@H]3[C@@](O)(C(=O)OC)[C@H](OC(C)=O)[C@]5(CC)C=CCN6CC[C@]43[C@@H]65)C2)C1 [deoxy VLB "A"]
oncolytic activity in experimental tumors in mice (experimental tumors): lack reproducible activity | activity in the treatment of experimental malignancies in animals [4]: active

CC[C@H]1C[C@@H]2CN(CCc3c([nH]c4ccccc34)[C@@](C(=O)OC)(c3cc4c(cc3OC)N(C)[C@H]3[C@@](O)(C(=O)OC)[C@H](OC(C)=O)[C@]5(CC)C=CCN6CC[C@]43[C@@H]65)C2)C1 [deoxy VLB "B"]
oncolytic activity in experimental tumors in mice (experimental tumors): lack reproducible activity | activity in the treatment of experimental malignancies in animals [4]: active

CCC1(O)CN2CCc3c([nH]c4ccccc34)C(C(=O)OC)(c3cc4c(cc3OC)N(C)C3C(O)(C(=O)OC)C(OC(C)=O)C5(CC)C=CCN6CCC43C65)CC(O)(C2)C1 (stereo not drawn) [leurocolombine]
activity in the treatment of experimental malignancies in animals [4]: active

CC[C@]1(O)C[C@@H]2CN(CCc3c([nH]c4ccccc34)[C@@](C(=O)OC)(c3cc4c(cc3OC)N(C=O)[C@H]3[C@@](O)(C(=O)OC)[C@H](OC(C)=O)[C@]5(CC)C=CCN6CC[C@]43[C@@H]65)C2)C1 [leurocristine]
activity in the treatment of experimental malignancies in animals [4]: active

CCC12CN3CCc4c([nH]c5ccccc45)[C@@](C(=O)OC)(c4cc5c(cc4OC)N(C=O)[C@H]4[C@@](O)(C(=O)OC)[C@H](OC(C)=O)[C@]6(CC)C=CCN7CC[C@]54[C@@H]76)C[C@@H](C3)C1O2 (stereo partly drawn) [leuroformine, N-formylleurosine]
activity in the treatment of experimental malignancies in animals [4]: active

CC[C@@]1(O)C[C@@H]2CN(CCc3c([nH]c4ccccc34)[C@@](C(=O)OC)(c3cc4c(cc3OC)N(C)[C@H]3[C@@](O)(C(=O)OC)[C@H](OC(C)=O)[C@]5(CC)C=CCN6CC[C@]43[C@@H]65)C2)C1 [leurosidine]
activity in the treatment of experimental malignancies in animals [4]: active

CCC12CN3CCc4c([nH]c5ccccc45)[C@@](C(=O)OC)(c4cc5c(cc4OC)N(C)[C@H]4[C@@](O)(C(=O)OC)[C@H](OC(C)=O)[C@]6(CC)C=CCN7CC[C@]54[C@@H]76)C[C@@H](C3)C1O2 (stereo partly drawn) [leurosine]
clinical response [5]: limited | oncolytic activity in experimental tumors in mice (experimental tumors): demonstrated oncolytic activity | activity in the treatment of experimental malignancies in animals [4]: active

CCC1(O)CN2CCc3c([nH]c4ccccc34)C(C(=O)OC)(c3cc4c(cc3OC)N(C)C3C(O)(C(=O)OC)C(OC(C)=O)C5(CC)C=CCN6CCC43C65)CC(C2)C1O (stereo not drawn) [vincadioline]
activity in the treatment of experimental malignancies in animals [4]: active

CC[C@]1(O)C[C@@H]2CN(CCc3c([nH]c4ccccc34)[C@@](C(=O)OC)(c3cc4c(cc3OC)N(C)[C@H]3[C@@](O)(C(=O)OC)[C@H](OC(C)=O)[C@]5(CC)C=CCN6CC[C@]43[C@@H]65)C2)C1 [vincaleukoblastine]
activity in the treatment of experimental malignancies in animals [4]: active
